Laboratory results: patent publication US11440939B2, “Anticancer peptides” (IDP DISCOVERY PHARMA, S.L., priority 2017, dated 2022)
Numbered stars: 1 amine (or outer) side, 2 acyl side, 3 side chain; on linkers, the order of the positions; unused ones are H or OH. Bridge positions count the residues as written; N and C are the ends. Square brackets hold non-standard residues; d marks the D form. Peptide text beside a SMILES is read from it. ξ: configuration not given here. ξαMeNle(6-ylidene) = CC(CCCC=[*:3])(N[*:1])C(=O)[*:2]; X1 = CC(CCCCCCC=[*:3])(N[*:1])C(=O)[*:2]

Legend:
Format in all cases: cell-based
NCI-H69 = conditions: 72 h
Method: NCI-69, (small cell lung cancer, SCLC), ATCC-HTB-119;
Cell line MCF-7 was cultured in incubator under CO2 (6%) at 37° C. in DMEM high glucose (Dulbecco's Modified Eagle Solution, Gibco-BRL 31966-21) medium with 10% fetal bovine serum inactivated (FBS) (Gibco-BRL 10106-169). Cell lines HL-60, NCI-H524, NCI-H526, NCI-H69, NCI-H82, NCI-H187 and H5B were cultured in an incubator at 37° C. in RPMI-1640 (Sigma R8758) medium with 10% of fetal bovine serum inactivated (FBS) and 2 mM glutamine (Sigma G7513). Cell line NCI-H510A was cultured in incubator in F12K medium with 10% of fetal bovine serum inactivated (FBS). […]
During the amplification step and the assays, adherent cells were rinsed with DPBS (Dulbecco's Phosphate Buffered Saline, Sigma D1283) three times and afterward treated for 5 minutes with trypsin ([…]) (Gibco-BRL, 15400054) in solution of DPBS at 37° C., and, once detached, transferred in the culturing medium. […] Cells were counted in a Neubauer chamber after labelling with Tripan-Blue. […]
(§1) Cells were incubated during 72 h in incubator under CO2 atmosphere at 37° C. Cell viability was measured by means of MTT (3-(4,5-dimethylthiazol-2-yl)-2,5-diphenyltetrazolium bromide) assay, Alamar Blue® (Biosource DAL1100) and Hexosaminidase activity test, consecutively, following manufacturer instructions.
MTT: 1. […] Absorbance at 570 nm was finally measured. […]

NCI-H82 = conditions: 72 h
Method: NCI-H82, epithelial (small cell lung cancer, SCLC), ATCC-CRL-5811;
(§2) Cell line MCF-7 was cultured in incubator under CO2 (6%) at 37° C. in DMEM high glucose (Dulbecco's Modified Eagle Solution, Gibco-BRL 31966-21) medium with 10% fetal bovine serum inactivated (FBS) (Gibco-BRL 10106-169). Cell lines HL-60, NCI-H524, NCI-H526, NCI-H69, NCI-H82, NCI-H187 and H5B were cultured in an incubator at 37° C. in RPMI-1640 (Sigma R8758) medium with 10% of fetal bovine serum inactivated (FBS) and 2 mM glutamine (Sigma G7513). Cell line NCI-H510A was cultured in incubator in F12K medium with 10% of fetal bovine serum inactivated (FBS). Cell line GBM-18 and GBM-27 were cultured in incubator under CO2 (6%) at 37° C. in complete medium (Neurobasal+B27+Glutamax+Growth factors).
(§3) During the amplification step and the assays, adherent cells were rinsed with DPBS (Dulbecco's Phosphate Buffered Saline, Sigma D1283) three times and afterward treated for 5 minutes with trypsin ([…]) (Gibco-BRL, 15400054) in solution of DPBS at 37° C., and, once detached, transferred in the culturing medium. No-adherent cells were centrifuged and transferred in the culturing medium. Cells were counted in a Neubauer chamber after labelling with Tripan-Blue.
(§4) MCF-7, NCI-H187, NCI-H69, NCI-H526 and H5B cells were seeded at a density of 5000 cells/well; NCI-H524 and NCI-H82 were seeded at a density of 2500 cells/well; HL-60 and NCI-H510A at 10000 cells/well in 100 μl of medium in 96 well plates. After 24 h, the compounds to be tested were added to calculate the dose/response curve at the starting concentration of 100 μM with serial dilutions (1:1). Controls were the untreated cells. Each experiment was performed in triplicate.
as §1
(§5) MTT: 1. Stock solution of MTT (475989 Calbiochem) was 5 mg/ml in PBS 1×. As negative control (experiment noise) 3 wells were treated with 20 μl/well of a solution of SDS 10% in H2O. The same control was used for Alamar Blue/Hexosaminidase. 10 μl/well of MTT solution were added and the plate was incubated for 3-4 hr. The medium was discarded and 100 μl of extracting buffer (PBS 1×, 15% SDS, 50% […] N,N-Dimethylformamide, pH 4,7) were added to each well. Plates were incubated for 16 h at room temperature under orbital shaking. Absorbance at 570 nm was finally measured.
(§6) Alamar Blue: 10 μl Alamar Blue solution was added to each well and the plates were incubated for […] in the incubator. Fluorescence ratio at 535/590 (excitation/emission) was measured in Cytofluor (Millipore) fluorimeter. Blank control was determined by lysis of untreated cells with con 2% of Triton X100, right before adding Alamar Blue solution.
(§7) Hexosaminidase activity test: after Alamar Blue lecture, medium was discarded and plates were rinsed once with PBS. 60 μl hexosaminidase substrate (p-nitrophenol-N-acetyl-beta-D-glucosamide 7.5 mM [Sigma N-9376], sodium citrate 0.1 M, pH 5.0, 0.25% Triton X-100) was added to each well and the plates were incubated at 37° C. for 2-5 h, according to the cell type (hexosaminidase activity changes according to the cell type). […] Blank control was the same as described before.
(§8) Data analysis was performed calculating the percentage of cell viability normalized vs. the values of negative control, which was considered equal to 100%. The dose/response curve was fitted through the sigmoidal equation dose-response (variable slope) and the EC50 values were calculated as follow: Y=Bottom+(Top−Bottom)/(1+10^{[(Log EC50−X)*HillSlope]},

[1] = Hepatotoxicity assay, trypan blue exclusion, 24 h; conditions: female, primary human hepatocytes, human hepatocytes, 24 h
Source text: (§9) NCI-510A, epithelial (small cell lung cancer, SCLC), ATCC-HBT-124; and Hepatocytes (normal liver), from a donor was provided by Foundation DTI-Donation & Transplantation Institute from surgical wastes and from organs not suitable for transplantation
(§10) Human liver from a donor was subjected to hepatocyte isolation by using a two-step tissue microperfusion technique taking maximum care to avoid anoxia before cannulation, since hepatocytes are cells highly sensitive to oxygen levels. An initial anoxic state could result in a low viability of the cells, and will later affect their metabolic capacity in the culture. Briefly, liver tissue was cannulated by using the accessible vessels with a 1 mm-diameter needle. A balanced salt solution was injected to clean the organ by using a peristaltic pump adjusted to a flow rate of 18-20 ml/min. After washing, a solution containing collagenase was added for liver disintegration. The cell suspension obtained using this process was filtered and centrifuged and, after a couple of washings to remove collagenase, cells were re-suspended in culture medium Ham's F-12/William (1:1) medium supplemented with 2 mM glutamine, […] sodium selenite, 2% newborn calf serum, 50 mU/ml penicillin, 50 μg/ml streptomycin, 0.1% bovine serum albumin, 1.68 mM NAME, 26 mM sodium bicarbonate, 25 μg/ml transferrin, 65.5 μM ethanolamine, 7.2 μM linoleic acid, 17.5 mM glucose, 6.14 mM ascorbic acid and 10 nM insulin.
(§11) After resuspension, a cell aliquot was removed and viability was determined by cell counting using the trypan blue exclusion method. Trypan blue uptake is the result of cell membrane alteration and in consequence of cell death. Thus, to quantify cell viability, 0.4% trypan blue in saline was added to the cells and these were immediately loaded in a Neubauer chamber. Viable cells were counted in 5 different fields under the optical microscope as non-blue cells. % Viability=Number of non-blue cells×100/Number of total cells Viability and Hepatoxicity Assay
(§12) Human hepatocytes isolated and re-suspended as described before were seeded at 100,000 viable cells/well on 96 collagen-coated plates in order to assess compound's cytotoxicity. After 1 hour in culture, medium was renewed to eliminate cell debris. Cultured human hepatocytes were allowed to stay in culture for 24 hours prior performing the experiments. After 24 h, the compounds to be tested were added to calculate the dose/response curve at the starting concentration of 400 μM with serial dilutions. Each experiment was performed in triplicate. Cells were incubated during 24 h in incubator under CO2 atmosphere at 37° C.
(§13) The viability was determined by cell counting using the trypan blue exclusion method. % Viability=Number of non-blue cells×100/Number of total cells Statistics

Human hepatocytes = test: Hepatotoxicity assay, trypan blue exclusion, 24 h; conditions: dose of 4 and 14 μM
Source text: as §9, §10, §11, §12, §13

NCI-H510A = conditions: 72 h
Method: as §9, §2, §3, §4, §1, §5, §6, §7, §8

CC(C)C[C@H](NC(=O)[C@H](CCCCN)NC(=O)[C@@H](NC(=O)[C@@H](N)CCCNC(=N)N)C(C)C)C(=O)N[C@H](C(=O)N[C@@H](CC(N)=O)C(=O)N[C@@H](CC(C)C)C(=O)NC1(C)CCCCCCC=CCCCC(C)(C(=O)N[C@H](C(=O)N2CCC[C@H]2C(N)=O)C(C)C)NC(=O)[C@H](CCC(=O)O)NC(=O)[C@H](CCCNC(=N)N)NC(=O)[C@H](CC(C)C)NC(=O)[C@H]([C@@H](C)O)NC(=O)[C@H](C)NC(=O)[C@H](Cc2ccccc2)NC1=O)C(C)C (stereo partly drawn) [H14] (H-RVKLVNL[X1]FATLRE[ξαMeNle(6-ylidene)]VP-NH2; staple 8-15; N-terminus and C-terminus assumed)
EC50 (NCI-H69): ~7 µM
EC50 (NCI-H82): ~12.5 µM
viability at 24 h, 4 µM ([1]; H14 4 μM): 113%
viability at 24 h, 14 µM ([1]; H14 14 μM): 119%
toxicity for normal hepatocytes (in words) (Human hepatocytes): not toxic
EC50 (NCI-H510A): ~12 µM
